Measured values published in patent publication US8008299B2, “Urotensin II receptor antagonists” (Janssen Pharmaceutica, N.V., priority 2007, dated 2011).
Read-outs that look alike come from different tables or passages of the source.

Experiments:
[1] = target: T1, rat GPR14 (U-II receptor) (Rattus norvegicus, UniProt P49684); settings: agonist activity of the cyclic peptide used as agonist; read-out: FLIPR EC50; cited from earlier work
T1 construct: expressed in transfected cells
T1 sequence (P49684 1-386): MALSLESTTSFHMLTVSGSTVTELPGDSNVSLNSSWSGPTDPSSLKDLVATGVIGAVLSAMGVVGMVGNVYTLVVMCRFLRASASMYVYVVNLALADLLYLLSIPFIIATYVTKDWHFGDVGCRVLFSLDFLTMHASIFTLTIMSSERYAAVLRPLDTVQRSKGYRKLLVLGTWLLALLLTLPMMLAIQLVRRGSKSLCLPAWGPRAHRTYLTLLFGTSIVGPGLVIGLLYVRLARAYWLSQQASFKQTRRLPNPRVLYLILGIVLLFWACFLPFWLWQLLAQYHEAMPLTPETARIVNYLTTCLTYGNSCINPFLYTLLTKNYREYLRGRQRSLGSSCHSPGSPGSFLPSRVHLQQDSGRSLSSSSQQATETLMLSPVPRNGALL

[2] = target: T2, rU-II (Rattus norvegicus, UniProt P49684); settings: cited from earlier work
T2 sequence (P49684 1-386): T1 sequence (P49684 1-386)

[3] = target: T1, rat GPR14 (U-II receptor); assay: Rat UII Calcium Mobilization FLIPR Assay; type: cell-based; settings: CHO cells transfected with rat GPR14; antagonist activity after 5 min incubation vs agonist (Ac)-CFWK(2-NaI)C-NH2 at 1 nM
How it was run: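 Fluorescent calcium signals were recorded at room temperature (23° C) by FLIPR. Stable rat U-II receptor CHO lines had been dye-loaded for 1 h at 37° C in pH 7.4 HBSS containing 20 mM HEPES, 0.1% BSA and 2.5 mM probenecid.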

[4] = target: T3, Human UII (U-II receptor) in 6D9 human rhabdomyosarcoma cells (Homo sapiens, UniProt Q9UKP6); assay: Human UII Calcium Mobilization Assay; type: cell-based; settings: 6D9 human rhabdomyosarcoma cells, FLIPR TETRA, average; read-out: Human UII Ca+ Mobilization Average IC50
T3 construct: 6D9: isolated by dilution subcloning of RMS13 cells, ATCC® Number: CRL-2061; host or cells: 6D9 human rhabdomyosarcoma cells (subclone of RMS13)
T3 sequence (Q9UKP6 1-389): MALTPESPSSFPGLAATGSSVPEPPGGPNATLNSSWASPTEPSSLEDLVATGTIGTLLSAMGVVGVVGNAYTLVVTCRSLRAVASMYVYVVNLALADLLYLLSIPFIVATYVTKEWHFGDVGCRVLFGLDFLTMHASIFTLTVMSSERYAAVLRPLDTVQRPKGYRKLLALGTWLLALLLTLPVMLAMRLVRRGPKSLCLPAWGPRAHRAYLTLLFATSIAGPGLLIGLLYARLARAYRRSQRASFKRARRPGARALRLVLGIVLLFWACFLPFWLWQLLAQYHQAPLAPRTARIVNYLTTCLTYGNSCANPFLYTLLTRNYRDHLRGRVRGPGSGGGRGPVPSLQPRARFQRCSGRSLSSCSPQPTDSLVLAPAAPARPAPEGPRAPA

[5] = target: T4, UT receptors in HSMM (Human Skeletal Muscle Myoblasts) (Homo sapiens, UniProt Q9UKP6); assay: Human Radioligand Binding Assay ((^125I)-U-II binding to intact HSMM)
T4 sequence (Q9UKP6 1-389): T3 sequence (Q9UKP6 1-389)

| IC50 [3] | IC50 [4] | Ki [5] | Compound | EC50 [1] | Ki [2] | Ki ([5]; read-out: Human UII Average Binding Ki, intact HSMM, 0.150 nM (^125I)-U-II, 3 h, 25° C.) |
| --- | --- | --- | --- | --- | --- | --- |
| 14 nM | 448 nM | 50 nM | COc1ccc([C@@H](CCCOc2ccccc2)N2Cc3c(cccc3N3CCNCC3)C2=O)cc1OC [Cpd 37, 2-[(1R)-1-(3,4-dimethoxy-phenyl)-4-phenoxy-butyl]-4-piperazin-1-yl-2,3-dihydro-isoindol-1-one] |  |  |  |
| 1700 nM | 7010 nM | > 300 nM | COc1ccc([C@@H](CCCNc2nccc(C(F)(F)F)n2)N2Cc3c(cccc3N3CCN(C4CC4)CC3)C2=O)cc1OC [Cpd 4, 4-(4-cyclopropyl-piperazin-1-yl)-2-[(1R)-1-(3,4-dimethoxy-phenyl)-4-(4-trifluoromethyl-pyrimidin-2-ylamino)-butyl]-2,3-dihydro-isoindol-1-one] |  |  |  |
| 31 nM | 1270 nM | 66 nM | CCN1CCN(c2cccc3c2CN(C(c2cccc(NS(=O)(=O)c4cccs4)c2)c2ccc(OC)c(OC)c2)C3=O)CC1 (centres unmarked) [Cpd 16, thiophene-2-sulfonic acid (3-{(3,4-dimethoxy-phenyl)-[4-(4-ethyl-piperazin-1-yl)-1-oxo-1,3-dihydro-isoindol-2-yl]-methyl}-phenyl)-amide] |  |  |  |
| 7330 nM | 3060 nM | > 300 nM | CCN1CCN(c2cccc3c2CN(C(c2ccc(OC)c(OC)c2)C2CCN(S(=O)(=O)c4cn(C)c(C)n4)CC2)C3=O)CC1 (centres unmarked) [Cpd 44, 2-{(3,4-dimethoxy-phenyl)-[1-(1,2-dimethyl-1H-imidazole-4-sulfonyl)-piperidin-4-yl]-methyl}-4-(4-ethyl-piperazin-1-yl)-2,3-dihydro-isoindol-1-one] |  |  |  |
| 138 nM | 988 nM | 162 nM | CCN1CCN(c2cccc3c2CN([C@H](CCCN(C)S(=O)(=O)c2cn(C)c(C)n2)c2ccc(OC)c(OC)c2)C3=O)CC1 [Cpd 39, 1,2-dimethyl-1H-imidazole-4-sulfonic acid {(4R)-4-(3,4-dimethoxy-phenyl)-4-[4-(4-ethyl-piperazin-1-yl)-1-oxo-1,3-dihydro-isoindol-2-yl]-butyl}-methyl-amide] |  |  |  |

Second part, the compound before the results:

| Compound | IC50 [3] | IC50 [4] | Ki [5] | EC50 [1] | Ki [2] | Ki ([5]; read-out: Human UII Average Binding Ki, intact HSMM, 0.150 nM (^125I)-U-II, 3 h, 25° C.) |
| --- | --- | --- | --- | --- | --- | --- |
| (Ac)-CFWK(2-NaI)C—NH2 |  |  |  | 0.54 ± 0.2 nM | 0.12 ± 0.05 nM |  |
| CCN1CCN(c2cccc3c2CN([C@H](CCCNc2ncccn2)c2ccc(OC)c(OC)c2)C3=O)CC1 [Cpd 48, 2-[(1R)-1-(3,4-dimethoxy-phenyl)-4-(pyrimidin-2-ylamino)-butyl]-4-(4-ethyl-piperazin-1-yl)-2,3-dihydro-isoindol-1-one] | 61 nM | 496 nM | 48 nM |  |  |  |
| CCN1CCN(c2cccc3c2CN([C@H](CCCNCc2cccs2)c2ccc(OC)c(OC)c2)C3=O)CC1 [Cpd 72, 2-{(1R)-1-(3,4-dimethoxy-phenyl)-4-[(thiophen-2-ylmethyl)-amino]-butyl}-4-(4-ethyl-piperazin-1-yl)-2,3-dihydro-isoindol-1-one] | 6 nM | 59 nM |  |  |  | 18 nM |
| CCN1CCN(c2cccc3c2CN([C@H](CCCNC(=O)C(C)(C)C)c2ccc(OC)c(OC)c2)C3=O)CC1 [Cpd 83, N-{(4R)-4-(3,4-dimethoxy-phenyl)-4-[4-(4-ethyl-piperazin-1-yl)-1-oxo-1,3-dihydro-isoindol-2-yl]-butyl}-2,2-dimethyl-propionamide] | 45 nM | 200 nM | 17 nM |  |  |  |
| CCN1CCN(c2cccc3c2CN([C@H](CCCNCc2ccccc2)c2ccc(OC)c(OC)c2)C3=O)CC1 [Cpd 77, 2-[(1R)-4-benzylamino-1-(3,4-dimethoxy-phenyl)-butyl]-4-(4-ethyl-piperazin-1-yl)-2,3-dihydro-isoindol-1-one] | 5 nM | 47 nM | 26 nM |  |  |  |
| CCN1CCN(c2cccc3c2CN([C@H](CCCn2ccnc2)c2ccc(OC)c(OC)c2)C3=O)CC1 [Cpd 32, 2-[(1R)-1-(3,4-dimethoxy-phenyl)-4-imidazol-1-yl-butyl]-4-(4-ethyl-piperazin-1-yl)-2,3-dihydro-isoindol-1-one] | 45 nM | 2040 nM | 157 nM |  |  |  |
| CCN1CCN(c2cccc3c2CN([C@H](CCCN(C)Cc2cccc(F)c2)c2ccc(OC)c(OC)c2)C3=O)CC1 [Cpd 98, 2-{(1R)-1-(3,4-dimethoxy-phenyl)-4-[(3-fluoro-benzyl)-methyl-amino]-butyl}-4-(4-ethyl-piperazin-1-yl)-2,3-dihydro-isoindol-1-one] | 4 nM | 105 nM | 59 nM |  |  |  |
| CCN1CCN(c2cccc3c2CN([C@H](CCCNS(=O)(=O)c2cn(C)c(C)n2)c2ccc(OC)c(OC)c2)C3=O)CC1 [Cpd 82, 1,2-dimethyl-1H-imidazole-4-sulfonic acid {(4R)-4-(3,4-dimethoxy-phenyl)-4-[4-(4-ethyl-piperazin-1-yl)-1-oxo-1,3-dihydro-isoindol-2-yl]-butyl}-amide] | 23 nM | 51 nM | 25 nM |  |  |  |
| CCN1CCN(c2cccc3c2CN([C@H](CCCNC(=O)c2cn[nH]c2)c2ccc(OC)c(OC)c2)C3=O)CC1 [Cpd 79, 1H-pyrazole-4-carboxylic acid {(4R)-4-(3,4-dimethoxy-phenyl)-4-[4-(4-ethyl-piperazin-1-yl)-1-oxo-1,3-dihydro-isoindol-2-yl]-butyl}-amide] | 6 nM | 133 nM | 39 nM |  |  |  |
| CCN1CCN(c2cccc3c2CN(C(c2ccc(OC)c(OC)c2)C2CCN(Cc4ccccc4)CC2)C3=O)CC1 (centres unmarked) [Cpd 43, 2-[(1-benzyl-piperidin-4-yl)-(3,4-dimethoxy-phenyl)-methyl]-4-(4-ethyl-piperazin-1-yl)-2,3-dihydro-isoindol-1-one] | 173 nM | 2680 nM | > 300 nM |  |  |  |
| CCN1CCN(c2cccc3c2CN([C@H](CCCNC(=O)c2nccn2C)c2ccc(OC)c(OC)c2)C3=O)CC1 [Cpd 56, 1-methyl-1H-imidazole-2-carboxylic acid {(4R)-4-(3,4-dimethoxy-phenyl)-4-[4-(4-ethyl-piperazin-1-yl)-1-oxo-1,3-dihydro-isoindol-2-yl]-butyl}-amide] | 79 nM | 699 nM | 125 nM |  |  |  |
